The results in this text go back to patent publication US8329899B2, “Pyrazole compounds that modulate HSP90 activity” (Synta Pharmaceuticals, Corp., priority 2005, dated 2012).

The test system of this test is Her2. Description: Degradation of Her2 in BT-474 cells, Method 1 (Western blot). It is filed as cell-based, Human. Conditions: 0.5 μM, overnight. The protocol:
Human high-Her2 breast carcinoma BT474 (HTB-20), SK-BR-3 (HTB-30) and MCF-7 breast carcinoma (HTB-22) from American Type Culture Collection, Va., USA were grown in Dulbecco's modified Eagle's medium with 4 mM L-glutamine and antibiotics (100 IU/ml penicillin and 100 ug/ml streptomycine; GibcoBRL). To obtain exponential cell growth, cells were trypsinized, counted and seeded at a cell density of 0.5×10^6 cells/ml regularly, every 3 days. All experiments were performed on day 1 after cell passage.
BT-474 cells are treated with 0.5 μM, 2 μM, or 5 μM of 17AAG (a positive control) or 0.5 μM, 2 μM, or 5 μM of a compound of the invention overnight in DMEM medium. After treatment, each cytoplasmic sample is prepared from 1×10^6 cells by incubation of cell lysis buffer (#9803, cell Signaling Technology) on ice for 10 minutes. The resulting supernatant used as the cytosol fractions is dissolved with sample buffer for SDS-PAGE and run on a SDS-PAGE gel, blotted onto a nitrocellulose membrane by using semi-dry transfer. Non-specific binding to nitrocellulose is blocked with 5% skim milk in TBS with 0.5% Tween at room temperature for 1 hour, then probed with anti-Her2/ErB2 mAb (rabbit IgG, #2242, Cell Signaling) and anti-Tubulin (T9026, Sigma) as housekeeping control protein. […]
A general note: Immunoblotting shows a protein as a band on a membrane.

Molecules are shown by their SMILES.

Turning to `C=CCNC1=C2C[C@@H](C)C[C@H](OC)[C@H](O)[C@@H](C)/C=C(\C)[C@H](OC(N)=O)[C@@H](OC)/C=C\C=C(/C)C(=O)NC(=CC1=O)C2=O` [Compound 17AAG], the “degradation of Her2” value is “partial degradation”.
